{
  "source": "patent US8420654B2",
  "about": "(Eli Lilly and Company, priority 2008, dated 2013)",
  "key": {"[1]": {"assay": "Rat oral bioavailability", "type": "in vivo", "settings": "Sprague-Dawley, plasma, fasted male SD rats, IV 0.25 mg/kg, PO 1 mg/kg, based on AUC0-24hr, mean s.d., n=3", "method": "Methods for accessing bioavailability are well appreciated in the art. One such reference is Medicinal Research Reviews Vol 21 No. 5 382-396 (2001). Bioavailability of compounds may be estimated essentially as follows.\nCohorts of three or four 250-450 gram male Sprague-Dawley rats or approximately 10 kg Beagle dogs (female or male) are used. […] Dogs are administered i.v. by cannulated cephalic vein and blood collections are by jugular vein. Animals are first dosed at 0.25 mg/kg i.v. and blood samples (0.2 mL) are then collected using EDTA as an anticoagulant at 0.0830, 0.25, 0.50, 1, 2, 4, 8, 12, 24, 48, 72, 96, and 120 hours. Next after at least two days and after 18-24 hours fasting, the animals are dosed at 1.0 mg/kg by oral gavage. During the course of a study the total of blood (ml) collected is not to exceed 1% of total body weight in grams. Should larger blood volumes be required, the sampled blood volume is replace with heparinized whole blood from a donor animal. When using a cross-over study design, rats receive a volume of heparinized whole blood following the final sample of each study day approximately equal to that removed during study.\nCompound plasma concentrations are measured by LC/MS/MS assays. Data are then analyzed using standard non-compartmental pharmacokinetic analysis. […]"}, "[2]": {"tested_on": "CYP3A", "assay": "Human CYP fingerprinting, ketoconazole inhibitor", "type": "in vitro ADME", "settings": "4 μM, human liver microsomes, 30 min, ketoconazole 10 μM", "method": "(§1) CYP fingerprinting is well established technique and is used as an indication of potential risk of drug-drug interactions in the pharmaceutical sciences. Compounds of the present invention may be assayed by well known methods, essentially as follows: Compounds are incubated at 37° C. at a final concentration of 4 μM with pooled, mixed gender, human liver microsomes and 1 mM NADPH ([…]) (final conc.) for 0 and 30 min. without any CYP inhibitor and with each CYP inhibitor in separate incubations for 30 min. Each inhibitor is specific for an individual cytochrome P450. The specific inhibitors used for CYPs 2C9, 2D6 and 3A were sulfaphenazole, quinidine and ketoconazole, respectively. Ketoconazole (CYP3A) is made up at 25 mM in DMSO and then diluted in buffer to a final concetration of 10 μM. Quinidine (CYP2D6) is made up at 5 mM in 50/50 acetonitrile/water and then diluted in buffer to a final concetration of 10 μM. Sulfaphenazole (CYP2C9) is made up at 100 mM in DMSO and then diluted in buffer to a final concetration of 5 μM. Samples are analyzed by LC-MS in positive or negative electrospray mode using a Waters Acquity Ultra Performance LC coupled to a MicroMass Q-T of-2 mass spectrometer.\n(§2) Data are analyzed using MetaboLynx™ version 4.1. With inhibitor present, a reduction in metabolite peak area of less than 30% (relative to the uninhibited control incubation) receives a designation of low risk of Drug Drug Interaction (DDI), a reduction in peak area between 30% and 70% receives a moderate risk of DDI and a reduction of more than 70% receives a high risk of DDI."}, "[3]": {"target": "T1, CYP2D6 (Homo sapiens, UniProt P10635)", "T1 construct": "pooled, mixed gender, human liver microsomes; from tissue; host or cells: pooled, mixed gender human liver microsomes", "T1 sequence (P10635 whole entry)": "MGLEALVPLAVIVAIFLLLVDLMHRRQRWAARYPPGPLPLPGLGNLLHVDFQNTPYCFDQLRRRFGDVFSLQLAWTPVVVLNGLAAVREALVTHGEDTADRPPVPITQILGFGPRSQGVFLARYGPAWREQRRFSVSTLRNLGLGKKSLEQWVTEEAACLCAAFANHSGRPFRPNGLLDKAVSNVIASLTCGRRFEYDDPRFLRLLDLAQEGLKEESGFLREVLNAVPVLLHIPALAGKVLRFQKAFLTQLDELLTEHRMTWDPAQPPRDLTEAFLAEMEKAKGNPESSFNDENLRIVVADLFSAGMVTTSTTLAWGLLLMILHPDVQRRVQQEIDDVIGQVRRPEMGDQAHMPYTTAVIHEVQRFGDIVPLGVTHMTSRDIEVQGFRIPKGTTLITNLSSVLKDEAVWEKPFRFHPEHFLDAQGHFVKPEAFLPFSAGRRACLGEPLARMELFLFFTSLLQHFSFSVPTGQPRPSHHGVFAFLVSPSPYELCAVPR", "assay": "Human CYP fingerprinting, quinidine inhibitor", "type": "in vitro ADME", "settings": "4 μM, human liver microsomes, 30 min, quinidine 10 μM", "method": "as §1, §2"}},
  "data": [
    {"molecule": "CC(C)(N[C@@H]1C[C@H](c2cccc(OC(F)(F)F)c2)N(c2ccc(C(F)(F)F)cc2)C1=O)c1ccnc(C(F)(F)F)n1.Cc1ccc(S(=O)(=O)O)cc1", "note": "[Example 5, (3R,5R)-3-[1-Methyl-1-(2-trifluoromethyl-pyrimidin-4-yl)-ethylamino]-5-(3-trifluoromethoxy-phenyl)-1-(4-trifluoromethyl-phenyl)-pyrrolidin-2-one tosylate]", "values": [
      {"measurement": "bioavailability", "setting": "[1]", "value": 51, "unit": "%"},
      {"measurement": "Risk of Drug Drug Interaction (DDI) CYP3A", "setting": "[2]", "value": "low (a reduction in metabolite peak area of less than 30% (relative to the uninhibited control incubation) receives a designation of low risk of Drug Drug Interaction (DDI))"},
      {"measurement": "Risk of Drug Drug Interaction (DDI) CYP2D6", "setting": "[3]", "value": "low (a reduction in metabolite peak area of less than 30% (relative to the uninhibited control incubation) receives a designation of low risk of Drug Drug Interaction (DDI))"}
    ]}
  ]
}
